Experimental findings from US8022225B2, “Triazole derivative” (Taisho Pharmaceutical Co., Ltd, priority 2004, dated 2011) are described below.

The target in test [1] is T1, human Edg-1(S1P1) (Homo sapiens, UniProt P21453).
T1 construct: expressed in transfected cells; host or cells: HEK-293
Description: Membrane system binding test: inhibition of [33P]-S1P binding to the membrane fraction of Edg-1(S1P1) gene transferred HEK-293 cells. To be noted: [33P]-S1P 0.1 nM. The method, boiled down: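 Membranes from HEK-293 cells transfected with Edg-1(S1P1) incubated 1 h at 30 °C with 0.1 nM [^33P]-S1P and compound at 10^−5 M (0.1% DMSO), pH 7.4 buffer with fatty acid-free BSA. Filter-bound radioactivity counted; inhibition rate calculated against no-compound binding, with untransfected-cell background subtracted.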

Test [2] concerns the target T1, human Edg-1(S1P1). Kind of test: Cell system binding test: inhibition of [3H]-S1P binding to Edg-1(S1P1) gene transferred HEK-293 cells. The following applies: [3H]-S1P 10 nM.
[3] abbreviates: 10 μM compound, membrane fraction of Edg-1(S1P1) gene transferred HEK-293 cells, read-out: Membrane system binding test % inhibition (10 μM).
Where [4] appears, read: 10 μM compound, read-out: Cell system binding test % inhibition (10 μM).
The mark [5] stands for this setting: test compound 10^-5 M, 1 hour at 30° C., HEK-293 membrane fraction, read-out: Edg-1(S1P1) binding inhibition rate (membrane system binding test).
Where [6] appears, read: test compound 10^-5 M, 1 hour, read-out: Edg-1(S1P1) binding inhibition rate (cell system binding test).

Structures are written as SMILES.

T1 sequence (P21453 whole entry): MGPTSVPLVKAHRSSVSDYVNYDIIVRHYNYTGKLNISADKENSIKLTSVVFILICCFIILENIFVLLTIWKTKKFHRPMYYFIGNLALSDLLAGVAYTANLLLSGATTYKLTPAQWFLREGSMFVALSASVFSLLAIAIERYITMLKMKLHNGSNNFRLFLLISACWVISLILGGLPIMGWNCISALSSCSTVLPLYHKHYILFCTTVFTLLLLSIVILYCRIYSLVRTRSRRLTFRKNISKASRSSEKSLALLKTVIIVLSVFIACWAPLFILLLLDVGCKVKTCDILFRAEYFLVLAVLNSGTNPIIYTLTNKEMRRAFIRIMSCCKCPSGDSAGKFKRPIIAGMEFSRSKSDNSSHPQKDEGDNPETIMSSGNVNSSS

The term inhibition denotes the drop in the measured response relative to a control, in per cent. Turning to `CCn1c(OC)nnc1[C@@H](C)NS(=O)(=O)c1cccc(OC(F)(F)F)c1` [Compound 275], the inhibition at 10 µM on human Edg-1(S1P1) [1] (setting [3]) came to 71.9%; on human Edg-1(S1P1) [2] (setting [4]) it was 99.4%.
Regarding `CCn1c(OC)nnc1[C@@H](C)NS(=O)(=O)c1ccc2c(c1)CCO2` [Compound 337], the inhibition at 10 µM at human Edg-1(S1P1) [1] (setting [3]) worked out at 61.3%; on human Edg-1(S1P1) [2] (setting [4]), 102%.
The like results for `CCn1c(OC)nnc1[C@@H](C)NS(=O)(=O)c1ccc(NC(C)=O)cc1` [Compound 444] were, in that order, 60.9% and 18.2%.
Take `CCc1ccc(S(=O)(=O)N[C@H](C)c2nnc(OC)n2CC)cc1` [Compound 222]: the inhibition at 10 µM was found to be 71.8% at human Edg-1(S1P1) [1] (setting [3]) and 92.9% at human Edg-1(S1P1) [2] (setting [4]).
As for `CCn1c(SCC2CC2)nnc1[C@@H](C)NS(=O)(=O)c1ccc(Cl)cc1` [Compound 10], the inhibition at 10 µM was 54.3% on human Edg-1(S1P1) [1] (setting [3]) and 85.6% at human Edg-1(S1P1) [2] (setting [4]).
Take `CCn1c(OC(C)C)nnc1[C@@H](C)NS(=O)(=O)c1cccc(OC(F)(F)F)c1` [Compound 469]: the inhibition at 10 µM at human Edg-1(S1P1) [1] (setting [5]) amounted to 83.9%; at human Edg-1(S1P1) [2] (setting [6]) it was 95.9%.
As for `CCn1c(SCCC(C)(C)C)nnc1[C@@H](C)NS(=O)(=O)c1ccc(Cl)cc1` [Compound 88], the inhibition at 10 µM amounted to 97.1% on human Edg-1(S1P1) [1] (setting [3]) and 87.6% at human Edg-1(S1P1) [2] (setting [4]).
For `CCOc1nnc([C@@H](C)NS(=O)(=O)c2ccc(F)cc2)n1CC` [Compound 436] the same measures were 49% and 94.5%.
As for `CCn1c(OC)nnc1[C@@H](C)NS(=O)(=O)c1cc(Br)cc(C(F)(F)F)c1` [Compound 371], the inhibition at 10 µM stood at 61.2% at human Edg-1(S1P1) [1] (setting [3]) and 102% on human Edg-1(S1P1) [2] (setting [4]).
`CCn1c(OC(C)C)nnc1[C@@H](C)NS(=O)(=O)c1cc(F)cc(F)c1` [Compound 474]: the inhibition at 10 µM at human Edg-1(S1P1) [1] (setting [5]) turned out to be 79%; on human Edg-1(S1P1) [2] (setting [6]), 93%.
For the compound `C=CCSc1nnc([C@@H](Cc2ccccc2)NS(=O)(=O)c2ccc(Cl)cc2)n1C` [Compound 134], the inhibition at 10 µM on human Edg-1(S1P1) [1] (setting [3]) turned out to be 84.8%; at human Edg-1(S1P1) [2] (setting [4]) it was 88.8%.
As for `C=CCSc1nnc([C@@H](Cc2ccccc2)NS(=O)(=O)c2ccc(Cl)cc2)n1CCC` [Compound 141], the inhibition at 10 µM is 79.5% on human Edg-1(S1P1) [1] (setting [3]) and 94.8% at human Edg-1(S1P1) [2] (setting [4]).
`CCn1c(OC)nnc1[C@@H](Cc1ccc(Cl)cc1)NS(=O)(=O)c1ccc(Cl)cc1` [Compound 426]: the inhibition at 10 µM on human Edg-1(S1P1) [1] (setting [3]) worked out at 101%; on human Edg-1(S1P1) [2] (setting [4]), 95.7%.
For the compound `CCn1c(OC)nnc1[C@@H](C)NS(=O)(=O)c1ccc(-c2ccccc2)cc1` [Compound 261], the values for the inhibition at 10 µM on human Edg-1(S1P1) [1] (setting [3]) and at human Edg-1(S1P1) [2] (setting [4]) were 56.7% and 94.5%, respectively.
Take `CCOc1nnc([C@@H](C)NS(=O)(=O)c2ccc(Cl)c(Cl)c2)n1CC` [Compound 401]: the values for the inhibition at 10 µM on human Edg-1(S1P1) [1] (setting [3]) and on human Edg-1(S1P1) [2] (setting [4]) were 87.2% and 92.8%, respectively.
Turning to `CCn1c(OC)nnc1[C@@H](C)NS(=O)(=O)c1ccc2c(c1)OCCN2C` [Compound 344], the inhibition at 10 µM was 65.8% on human Edg-1(S1P1) [1] (setting [3]) and 102% on human Edg-1(S1P1) [2] (setting [4]).
For the compound `CCCCOc1nnc([C@@H](C)NS(=O)(=O)c2ccc(Cl)cc2)n1CC` [Compound 396], the inhibition at 10 µM was 83.3% at human Edg-1(S1P1) [1] (setting [3]) and 87.9% at human Edg-1(S1P1) [2] (setting [4]).
For `CCOc1nnc([C@@H](C)NS(=O)(=O)c2ccc([N+](=O)[O-])cc2)n1CC` [Compound 413] the same measures were 93.8% and 100%.
Regarding `CCn1c(SCc2ccc(C)cc2)nnc1[C@@H](C)NS(=O)(=O)c1ccc(Cl)cc1` [Compound 59], the inhibition at 10 µM on human Edg-1(S1P1) [1] (setting [3]) amounted to 96.9%; at human Edg-1(S1P1) [2] (setting [4]), 93.2%.
The like results for `CCn1c(OC)nnc1[C@@H](C)NS(=O)(=O)c1ccc(Br)cc1Br` [Compound 306] were, in that order, 62.8% and 94.5%.
For the compound `CCn1c(OC)nnc1[C@@H](C)NS(=O)(=O)c1ccc(Br)c(C(F)(F)F)c1` [Compound 372], the inhibition at 10 µM was 94.3% at human Edg-1(S1P1) [1] (setting [3]) and 105% at human Edg-1(S1P1) [2] (setting [4]).
In the case of `CCn1c(OC)nnc1[C@@H](C)NS(=O)(=O)Cc1cc(Cl)cc(Cl)c1` [Compound 292], the inhibition at 10 µM on human Edg-1(S1P1) [1] (setting [3]) came to 51.4%; at human Edg-1(S1P1) [2] (setting [4]), 96.7%.
